According to the Kinase Knowledgebase extract (Sharma et al. 2016):

molecular target: MAPK14 (human) (UniProt Q16539); experiment: Inhibition of Doubly Phosphorylated MAPK14 Kinase Activity (Biochemical Assay); details: not given

Row | IC50 [nM] | SMILES
1 | 86 | Cc1ccsc1-c1cc(NC(=O)Nc2cccc(Cl)c2Cl)n(-c2cccc(CC(N)=O)c2)n1
2 | 21 | NC(=O)Cc1cccc(-n2nc(-c3cccc(F)c3)cc2NC(=O)Nc2cccc(Cl)c2Cl)c1
3 | 58 | NC(=O)Cc1cccc(-n2nc(-c3cccc(Cl)c3)cc2NC(=O)Nc2cccc(Cl)c2Cl)c1
4 | 10 | NC(=O)Cc1cccc(-n2nc(-c3ccccc3F)cc2NC(=O)Nc2cccc(Cl)c2Cl)c1

molecular target: EGFR (human) (UniProt P00533); experiment: not given; details: hn5
Sequence (P00533 whole entry, looked up): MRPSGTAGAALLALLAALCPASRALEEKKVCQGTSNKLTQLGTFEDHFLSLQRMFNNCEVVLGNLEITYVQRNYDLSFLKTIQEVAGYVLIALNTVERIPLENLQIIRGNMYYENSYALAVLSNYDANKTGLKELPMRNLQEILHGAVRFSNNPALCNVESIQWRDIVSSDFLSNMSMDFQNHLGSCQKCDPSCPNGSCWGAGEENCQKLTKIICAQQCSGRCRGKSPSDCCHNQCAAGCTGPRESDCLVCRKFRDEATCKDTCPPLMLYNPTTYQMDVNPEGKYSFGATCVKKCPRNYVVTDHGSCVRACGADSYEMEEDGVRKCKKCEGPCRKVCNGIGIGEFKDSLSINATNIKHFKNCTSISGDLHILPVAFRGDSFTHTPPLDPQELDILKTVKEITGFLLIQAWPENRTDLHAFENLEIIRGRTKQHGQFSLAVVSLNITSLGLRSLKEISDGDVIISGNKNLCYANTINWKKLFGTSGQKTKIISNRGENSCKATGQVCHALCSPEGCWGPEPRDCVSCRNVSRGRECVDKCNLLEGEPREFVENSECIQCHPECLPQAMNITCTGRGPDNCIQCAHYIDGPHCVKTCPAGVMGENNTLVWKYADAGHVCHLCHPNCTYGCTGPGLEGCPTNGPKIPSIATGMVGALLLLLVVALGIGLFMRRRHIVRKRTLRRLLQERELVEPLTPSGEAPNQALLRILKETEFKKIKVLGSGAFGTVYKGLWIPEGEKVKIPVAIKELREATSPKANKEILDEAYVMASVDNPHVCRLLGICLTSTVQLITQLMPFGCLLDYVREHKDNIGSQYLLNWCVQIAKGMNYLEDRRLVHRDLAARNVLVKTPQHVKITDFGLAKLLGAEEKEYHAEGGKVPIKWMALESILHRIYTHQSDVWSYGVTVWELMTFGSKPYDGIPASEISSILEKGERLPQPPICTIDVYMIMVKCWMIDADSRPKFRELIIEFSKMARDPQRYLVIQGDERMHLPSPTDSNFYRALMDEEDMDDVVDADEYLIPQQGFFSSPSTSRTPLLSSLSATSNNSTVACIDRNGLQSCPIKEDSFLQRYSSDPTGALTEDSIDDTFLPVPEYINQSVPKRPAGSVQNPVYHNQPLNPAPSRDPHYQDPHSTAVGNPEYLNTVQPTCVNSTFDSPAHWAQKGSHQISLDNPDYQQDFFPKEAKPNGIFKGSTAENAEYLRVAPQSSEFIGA

Row | IC50 [nM] | SMILES
5 | 1600 | CS(=O)(=O)CCNCc1nc(-c2ccc3ncnc(Nc4ccc(OCc5ccccc5)cc4)c3c2)cs1
6 | 230 | CS(=O)(=O)CCNCc1nc(-c2ccc3ncnc(Nc4ccc(OCc5ccccc5)c(Cl)c4)c3c2)cs1
7 | 570 | CS(=O)(=O)CCNCc1nc(-c2ccc3ncnc(Nc4ccc(F)c(Cl)c4)c3c2)cs1
8 | 110 | CS(=O)(=O)CCNCc1nc(-c2ccc3ncnc(Nc4ccc5c(cnn5Cc5ccccc5)c4)c3c2)cs1

molecular target: MAPK14 (human) (UniProt Q16539); experiment: Inhibition of MAPK14 Kinase Activity; details: not given

Row | IC50 [nM] | SMILES
9 | 250 | Cc1ccc(C(N)=O)cc1Nc1nc(N[C@H]2CCNC2)nc(N(C)C2CCCCC2)n1
10 | 28 | CCC(C)N(C)c1nc(Nc2cc(C(N)=O)ccc2C)nc(N[C@H]2CCNC2)n1 (stereo not given in full)

molecular target: PIK3CG (human) (UniProt P48736); experiment: Assessment of PIK3CG Kinase Activity; details: not given

Row | IC50 [nM] | SMILES
11 | > 10000 | COCCn1c(Cc2nc(N3CCOCC3)cc(=O)[nH]2)nc2ccccc21

molecular target: EGFR (human) (UniProt P00533); experiment: not given; details: not given

Row | SMILES | IC50 [nM]
12 | COc1cc2ncnc(Nc3ccc(F)c(Cl)c3)c2cc1O[C@H]1CC[C@H](NS(=O)(=O)N2CCOCC2)CC1 | 0.4
13 | CC.COc1cc2ncnc(Nc3ccc(F)c(Cl)c3)c2cc1OC1CCN(S(=O)(=O)N2CCOCC2)CC1 | 0.1

Next, values leading:

Row | IC50 [nM] | SMILES
14 | 0.13 | COc1cc2ncnc(Nc3ccc(F)c(Cl)c3)c2cc1O[C@H]1CCOC1
15 | 1 | COc1cc2ncnc(Nc3ccc(F)c(Cl)c3)c2cc1O[C@H]1CC[C@H](NS(=O)(=O)N(C)C)CC1
16 | 0.3 | COc1cc2ncnc(Nc3ccc(F)c(Cl)c3)c2cc1O[C@H]1CC[C@H](NC(=O)N2CCOCC2)CC1

molecular target: PIK3CB (Human) (UniProt P42338); experiment: Assessment of PIK3CB Kinase Activity; details: not given
Sequence (P42338 whole entry, looked up): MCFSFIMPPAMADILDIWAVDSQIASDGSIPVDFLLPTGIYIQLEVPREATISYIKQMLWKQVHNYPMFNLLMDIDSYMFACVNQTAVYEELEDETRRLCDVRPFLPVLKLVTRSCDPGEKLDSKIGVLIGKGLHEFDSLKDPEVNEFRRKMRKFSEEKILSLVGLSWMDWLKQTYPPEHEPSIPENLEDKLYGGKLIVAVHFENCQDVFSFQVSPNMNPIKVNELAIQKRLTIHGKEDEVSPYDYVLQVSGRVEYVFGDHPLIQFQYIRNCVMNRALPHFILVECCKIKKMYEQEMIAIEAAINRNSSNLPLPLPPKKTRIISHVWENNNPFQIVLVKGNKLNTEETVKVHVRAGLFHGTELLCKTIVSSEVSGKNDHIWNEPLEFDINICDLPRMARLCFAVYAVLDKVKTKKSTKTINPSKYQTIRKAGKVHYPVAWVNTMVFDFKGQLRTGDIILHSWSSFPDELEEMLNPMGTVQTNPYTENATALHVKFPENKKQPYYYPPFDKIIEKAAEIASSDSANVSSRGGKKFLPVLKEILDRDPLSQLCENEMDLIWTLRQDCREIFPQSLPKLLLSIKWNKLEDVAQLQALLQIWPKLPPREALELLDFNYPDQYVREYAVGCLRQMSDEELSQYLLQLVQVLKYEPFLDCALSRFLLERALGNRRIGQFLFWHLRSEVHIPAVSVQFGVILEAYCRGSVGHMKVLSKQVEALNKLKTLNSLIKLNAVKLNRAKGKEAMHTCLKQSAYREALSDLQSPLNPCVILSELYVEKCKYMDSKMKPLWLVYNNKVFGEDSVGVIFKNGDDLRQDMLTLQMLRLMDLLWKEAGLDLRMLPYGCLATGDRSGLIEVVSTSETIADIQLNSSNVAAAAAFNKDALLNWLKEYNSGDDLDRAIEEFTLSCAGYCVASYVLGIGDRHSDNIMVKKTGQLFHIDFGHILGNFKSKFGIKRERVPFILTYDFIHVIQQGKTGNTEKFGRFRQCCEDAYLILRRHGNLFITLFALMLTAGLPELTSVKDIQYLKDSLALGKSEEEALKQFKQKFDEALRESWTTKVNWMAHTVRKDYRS

Row | SMILES | IC50 [nM]
17 | Nc1ncc(-c2cnc3ccc(-c4ccc(C(=O)N5CCN(Cc6ccccn6)CC5)cc4)nn23)cc1C(F)(F)F | 979
18 | CN1CC2CN(c3cnc4ncc(-c5ccc6oc(N)nc6c5)cc4n3)CC2C1 (stereo not given) | 100 to 1000
19 | CC(Nc1ccc(F)cc1)c1cc(C(=O)N(C)C)cc2c(=O)cc(N3CCO[C@@H](C)C3)oc12 (stereo not given in full) | 64

Results, then the molecule that gave them:

Row | IC50 [nM] | SMILES
20 | 205 | COCCn1c(Cc2nc(N3CCOCC3)cc(=O)[nH]2)nc2ccccc21
21 | 13 | Cc1c(Cn2ccn3c(=O)cc(C4C=COCC4)nc23)cccc1C(F)(F)F (stereo not given)

molecular target: PIK3CD (Human) (UniProt O00329); experiment: Assessment of PIK3CD Kinase Activity; details: not given

Row | SMILES | IC50 [nM]
22 | Nc1ncc(-c2cnc3ccc(-c4ccc(C(=O)N5CCN(Cc6ccccn6)CC5)cc4)nn23)cc1C(F)(F)F | 93
23 | CN1CC2CN(c3cnc4ncc(-c5ccc6oc(N)nc6c5)cc4n3)CC2C1 (stereo not given) | 100 to 1000

Next, values leading:

Row | IC50 [nM] | SMILES
24 | 270 | COCCn1c(Cc2nc(N3CCOCC3)cc(=O)[nH]2)nc2ccccc21
25 | 40 | Cc1c(Cn2ccn3c(=O)cc(C4C=COCC4)nc23)cccc1C(F)(F)F (stereo not given)

molecular target: EGFR (human) (UniProt P00533); experiment: not given; details: not given; remark: another data set of the same source

Row | IC50 [nM] | SMILES
26 | 16.9 | C=C=CCOc1cc2c(Nc3cccc(Cl)c3)ncnc2cc1OC
27 | 23.8 | C=C=CCOc1cc2c(Nc3ccc(F)c(Cl)c3)ncnc2cc1OC
28 | 28.5 | C=C=CCCCOc1cc2c(Nc3cccc(Cl)c3)ncnc2cc1OC
29 | 65.5 | C=C=CCCCCOc1cc2c(Nc3ccc(F)c(Cl)c3)ncnc2cc1OC

molecular target: PIK3CA (human) (UniProt P42336); experiment: Inhibition of PIK3CA Kinase Activity; details: not given

Row | IC50 [nM] | SMILES
30 | > 10000 | COCCn1c(Cc2nc(N3CCOCC3)cc(=O)[nH]2)nc2ccccc21

molecular target: MAPK14 (human) (UniProt Q16539); experiment: Inhibition of LPS-stimulated TNF-alpha Production in Human Monocytic Cells; details: thp.1 monocytic

Row | SMILES | IC50 [nM]
31 | CCOCn1nnc(-c2ccncc2)c1-c1ccc(F)cc1 | 490
32 | C[C@H](Nc1nccc(-c2nn3c(c2-c2ccc(F)cc2)OCC3)n1)c1ccccc1 | > 2000
33 | CC[C@H](C)Nc1nccc(-c2nn3c(c2-c2ccc(F)cc2)OCC3)n1 | 80
34 | COC[C@H](C)Nc1nccc(-c2nn3c(c2-c2ccc(F)cc2)OCC3)n1 | 1700
35 | Fc1ccc(-c2c(-c3ccnc(Oc4ccccc4)n3)nn3c2OCCC3)cc1 | > 10000

molecular target: MAPK14 (UniProt Q16539); experiment: not given; details: not given

Row | SMILES | inhibition [µM]
36 | Fc1ccc(Oc2cc(-c3c(-c4ccc(F)cc4)ncn3C3CCNCC3)ccn2)cc1 | < 50
37 | Fc1ccc(Oc2nccc(-c3c(-c4ccc(F)cc4)ncn3CCCN3CCOCC3)n2)cc1 | < 50
38 | Fc1ccc(-c2ncn(C3CCNCC3)c2-c2ccnc(Sc3ccccc3)c2)cc1 | < 50
39 | Fc1ccc(-c2ncn(C3CCNCC3)c2-c2ccnc(Oc3ccccc3)c2)cc1 | < 50

Second part, the molecule after the results:

Row | inhibition [µM] | SMILES
40 | < 50 | Cn1nnnc1Sc1cc(-c2c(-c3ccc(F)cc3)ncn2C2CCNCC2)ccn1
41 | < 50 | COc1ccc(Oc2cc(-c3c(-c4ccc(F)cc4)ncn3C3CCNCC3)ccn2)cc1

molecular target: PIK3CB;PIK3CG;PIK3CD;PIK3CA (human) (UniProt P48736); experiment: Inhibition of PIK3CA/PIK3CB/PIK3CD/PIK3CG Kinase Activity; details: not given

Row | IC50 [nM] | SMILES
42 | 913 | Nc1ncc(F)c(NCc2cc3cccc(Cl)c3nc2-c2ccccc2Cl)n1
43 | 3230 | Fc1cnc(Cl)nc1NCc1cc2cccc(Cl)c2nc1-c1ccccc1Cl
44 | 15300 | Cc1cccc2cc(CNc3ccnc(C(N)=O)c3)c(-c3ccccc3Cl)nc12
45 | 724 | COc1c(Cl)ncnc1NCc1cc2cccc(Cl)c2nc1-c1ccccc1

Row | SMILES | IC50 [nM]
46 | C[C@H](Nc1nc(N)ncc1Cl)c1cc2cccc(Cl)c2nc1-c1ccccn1 | 106

molecular target: PIK3CA (human) (UniProt P42336); experiment: Assessment of PIK3CA Kinase Activity; details: not given

Row | IC50 [nM] | SMILES
47 | 16 | Nc1ncc(-c2cnc3ccc(-c4ccc(C(=O)N5CCN(Cc6ccccn6)CC5)cc4)nn23)cc1C(F)(F)F
48 | < 100 | CN1CC2CN(c3cnc4ncc(-c5ccc6oc(N)nc6c5)cc4n3)CC2C1 (stereo not given)

molecular target: MAPK14 (murine); experiment: Inhibition of MAPK14 Kinase Assay; details: not given

Row | IC50 [nM] | SMILES
49 | 216 | COc1ccc(C(=O)N2CCC(Cc3cccc(NC(=O)Nc4cc(C(C)(C)C)nn4-c4ccc(C)cc4)c3)CC2)c(OC)c1
50 | 1170 | COc1ccc(C(=O)N2C3CCC2CC(Cc2ccc(NC(=O)Nc4cc(C(C)(C)C)nn4-c4ccc(C)cc4)cc2)C3)c(OC)c1 (stereo not given)
51 | 500 | COc1ccc(C(=O)N2CCC(Cc3ccccc3NC(=O)Nc3cc(C(C)(C)C)nn3-c3ccc(C)cc3)CC2)c(OC)c1
52 | 6750 | COc1ccc(C(=O)N2C3CCC2CC(Cc2ccccc2NC(=O)Nc2cc(C(C)(C)C)nn2-c2ccc(C)cc2)C3)c(OC)c1 (stereo not given)
53 | 230 | COc1ccc(C(=O)N2CCC(Cc3ccc(NC(=O)Nc4cc(C(C)(C)C)nn4-c4ccc(C)cc4)cc3)CC2)c(OC)c1

molecular target: PIK3CD (Human) (UniProt O00329); experiment: Inhibition of PIK3CD Kinase Activity; details: not given

Row | SMILES | IC50 [nM]
54 | C[C@H](Nc1nc(N)ncc1Cl)c1cc2cccc(Cl)c2nc1-c1ccccn1 | 105

molecular target: EGFR (UniProt P00533); experiment: not given; details: not given
Sequence (P00533 whole entry, looked up): as the sequence (P00533 whole entry, looked up) above

Row | SMILES | IC50 [nM]
55 | Cc1ccn2ncnc(Nc3ccc4c(cnn4Cc4cccc(F)c4)c3)c12 | 81
56 | COc1cn2ncnc(Nc3ccc4c(cnn4Cc4cccc(F)c4)c3)c2c1CN1CCCNCC1 | 190
57 | O=C1CNCCN(Cc2ccn3ncnc(Nc4ccc5c(cnn5Cc5cccc(F)c5)c4)c23)C1 | 78

Now from value to molecule:

Row | IC50 [nM] | SMILES
58 | 130 | Cc1cn2ncnc(Nc3ccc4c(cnn4Cc4cccc(F)c4)c3)c2c1CN1CCCNCC1
59 | > 1000 | COC(=O)C1CCN(Cc2ccn3ncnc(Nc4ccc5c(cnn5Cc5cccc(F)c5)c4)c23)CC1

molecular target: ROCK2 (human) (UniProt O75116); experiment: not given; details: not given
Sequence (O75116 whole entry, looked up): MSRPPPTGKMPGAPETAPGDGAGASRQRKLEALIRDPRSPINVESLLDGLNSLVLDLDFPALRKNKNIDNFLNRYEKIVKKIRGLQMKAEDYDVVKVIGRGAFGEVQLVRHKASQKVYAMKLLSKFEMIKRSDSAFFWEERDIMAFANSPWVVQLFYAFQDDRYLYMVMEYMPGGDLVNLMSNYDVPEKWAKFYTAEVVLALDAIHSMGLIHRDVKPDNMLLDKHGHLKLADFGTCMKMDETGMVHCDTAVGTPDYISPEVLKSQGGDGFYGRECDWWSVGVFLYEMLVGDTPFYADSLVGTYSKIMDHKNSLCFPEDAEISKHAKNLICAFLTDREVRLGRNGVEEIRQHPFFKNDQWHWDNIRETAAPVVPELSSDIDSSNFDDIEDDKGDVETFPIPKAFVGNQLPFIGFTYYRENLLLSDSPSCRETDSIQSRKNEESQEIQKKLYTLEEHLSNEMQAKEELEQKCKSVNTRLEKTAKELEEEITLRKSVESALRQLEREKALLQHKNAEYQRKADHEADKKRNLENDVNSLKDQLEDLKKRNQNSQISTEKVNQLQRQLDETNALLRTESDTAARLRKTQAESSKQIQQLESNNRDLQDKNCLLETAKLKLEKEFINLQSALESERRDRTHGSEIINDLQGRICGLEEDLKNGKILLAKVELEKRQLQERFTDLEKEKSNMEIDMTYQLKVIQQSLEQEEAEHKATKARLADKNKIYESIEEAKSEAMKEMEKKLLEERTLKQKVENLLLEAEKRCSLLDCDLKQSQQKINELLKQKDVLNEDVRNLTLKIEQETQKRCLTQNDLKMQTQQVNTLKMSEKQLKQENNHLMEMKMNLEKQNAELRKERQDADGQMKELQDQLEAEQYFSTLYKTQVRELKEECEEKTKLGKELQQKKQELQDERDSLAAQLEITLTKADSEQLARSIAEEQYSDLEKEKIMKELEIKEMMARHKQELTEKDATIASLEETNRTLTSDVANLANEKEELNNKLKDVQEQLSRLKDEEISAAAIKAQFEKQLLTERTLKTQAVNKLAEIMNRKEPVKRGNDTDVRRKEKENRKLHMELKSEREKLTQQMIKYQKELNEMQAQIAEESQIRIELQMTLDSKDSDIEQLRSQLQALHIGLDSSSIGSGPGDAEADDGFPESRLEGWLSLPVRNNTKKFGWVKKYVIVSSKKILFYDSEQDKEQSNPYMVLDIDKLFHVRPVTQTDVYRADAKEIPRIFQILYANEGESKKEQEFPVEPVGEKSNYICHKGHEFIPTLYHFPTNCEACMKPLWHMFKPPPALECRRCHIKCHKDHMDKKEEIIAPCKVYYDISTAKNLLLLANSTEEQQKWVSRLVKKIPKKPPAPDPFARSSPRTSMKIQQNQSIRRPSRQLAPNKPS

Row | IC50 [nM] | SMILES
60 | 850 | CCOc1ccc2c(c1)CC(C(=O)Nc1ccc(-c3cn[nH]c3)cc1OCCN(C)C)NC2 (stereo not given)
61 | 134 | COc1ccc2c(c1)C[C@H](C(=O)Nc1ccc(-c3cn[nH]c3)cc1)NC2
62 | 9 | CCN1Cc2ccc(OC)cc2C[C@@H]1C(=O)Nc1ccc(-c2cn[nH]c2)cc1OCCN(C)C
63 | 334 | COc1cccc2c1CNC(C(=O)Nc1ccc(-c3cn[nH]c3)cc1OCCN(C)C)C2 (stereo not given)

molecular target: PIK3CG (human) (UniProt P48736); experiment: Enzyme Assay; details: not given

Row | IC50 [nM] | SMILES
64 | 1270 | Nc1ncc(-c2cnc3ccc(-c4ccc(C(=O)N5CCN(Cc6ccccn6)CC5)cc4)nn23)cc1C(F)(F)F

molecular target: EGFR (UniProt P00533); experiment: EGFR Kinase Inhibition; details: not given

Row | SMILES | IC50 [nM]
65 | C[C@@H](O)[C@@H](NC1=CC(=O)C(N[C@@H](C(=O)O)[C@@H](C)O)=CC1=O)C(=O)O | 44000
66 | CC(C)[C@@H](NC1=C(CC2CCCC3CCCCC32)C(=O)C(O)=CC1=O)C(=O)O (stereo not given in full) | > 100000

Continued, values first:

Row | IC50 [nM] | SMILES
67 | 4500 | CN1CCN(CCCCCNc2ncc3cc(-c4c(Cl)cccc4Cl)c(=O)n(C)c3n2)CC1
68 | 1300 | COc1ccc(Nc2ncc3cc(-c4c(Cl)cccc4Cl)c(=O)n(C)c3n2)cn1
69 | 1000 | Cn1c(=O)c(-c2c(Cl)cccc2Cl)cc2cnc(NCCCCCC(=O)O)nc21

molecular target: EGFR (murine) (UniProt P00533); experiment: not given; details: nih3t3

Row | IC50 [nM] | SMILES
70 | > 50000 | Oc1ccc(-c2cnc3ccc(NCc4ccccc4)nc3n2)cc1
71 | > 100000 | COc1ccc2nc(-c3ccccc3)c(-c3ccccc3)nc2n1
72 | > 100000 | Cc1nc2ccc(NCc3ccc(F)cc3)nc2nc1-c1ccccc1
73 | > 50000 | c1ccc(Nc2ccc3ncc(-c4ccccc4)nc3n2)cc1
74 | > 100000 | COc1ccc2nc(C)c(-c3ccccc3)nc2n1
75 | > 100000 | Fc1ccc(CNc2ccc3nc(-c4ccccc4)c(-c4ccccc4)nc3n2)cc1

molecular target: MAPK14 (human) (UniProt Q16539); experiment: Inhibition of LPS Induced TNF-alpha Production in THP-1 Cells; details: thp1

Row | IC50 [nM] | SMILES
76 | 1300 | Cc1ccc(C(N)=O)cc1Nc1nc(N[C@H]2CCNC2)nc(N(C)C2CCCCC2)n1
77 | 325 | CCC(C)N(C)c1nc(Nc2cc(C(N)=O)ccc2C)nc(N[C@H]2CCNC2)n1 (stereo not given in full)
78 | > 250 | COC(=O)c1ccc(C)c(Nc2nc(N[C@H]3CCNC3)nc(N(C)CC(C)(C)C)n2)c1
79 | > 5000 | Cc1ccc(C(N)=O)cc1Nc1nc(NCCc2ccc(F)cc2)nc(N[C@H]2CCNC2)n1
80 | > 5000 | Cc1ccc(C(N)=O)cc1Nc1nc(NCC(C)C)nc(N[C@H]2CCNC2)n1
